Results taken from patent US20250353864A1, “INDAZOLE CONTAINING MACROCYCLES AND THEIR USE” (BLOSSOMHILL THERAPEUTICS, INC., priority 2022, published 2025).

Experiments:
Format in all cases: biochemical
CLK1 = CLK1 (Homo sapiens (Human), UniProt P49759); experiment: Inhibition of CLK1 kinase activity evaluated at Nanosyn (ADP-Glo); conditions: ADP-Glo luminescence
Description: (§1) Inhibition of CLK, CLK2, CLK3 and CLK4 Kinase Activity Evaluated at Nanosyn
(§2) Kinase protein and substrate were pre-diluted in the HEPES assay buffer (100 mM HEPES, pH 7.5, 0.01% Triton X-100, 0.1% BSA, 5 mM MgCl2, […] DTT, 10 Sodium Orthovanadate, […] Beta-Glycerophosphate) dispensed into 384 well plate (5 μL per well). Control samples (0%-inhibition in the absence of inhibitor, DMSO only) and 100%-inhibition (in the absence of enzyme) were assembled in replicates of six and were used to calculate %-inhibition in the presence of compounds. Test compounds were added to the protein samples by acoustic dispensing (Labcyte Echo550). Concentration of DMSO was equalized to 1% in all samples. Reactions were initiated by addition of ATP by acoustic dispensing (Labcyte Echo550) and incubated according to assay specific incubation time. After incubation. 5 μL of Promega ADP-Glo reagent was added and incubated for 40 minutes. After 40 minutes, 10 uL of Promega kinase detection reagent was added. After 10 min of incubation with Kinase detection reagent, the luminescence was read on microplate reader (Biotek Synergy).

CLK2 = CLK2 (Homo sapiens (Human), UniProt P49760); experiment: Inhibition of CLK2 kinase activity evaluated at Nanosyn (ADP-Glo); conditions: ADP-Glo luminescence
Description: as §1, §2

CLK3 = CLK3 (Homo sapiens (Human), UniProt P49761); experiment: Inhibition of CLK3 kinase activity evaluated at Nanosyn (ADP-Glo); conditions: ADP-Glo luminescence
Description: as §1, §2

CLK4 = CLK4 (Homo sapiens (Human), UniProt Q9HAZ1); experiment: Inhibition of CLK4 kinase activity evaluated at Nanosyn (ADP-Glo); conditions: ADP-Glo luminescence
CLK4, sequence (Q9HAZ1 whole entry): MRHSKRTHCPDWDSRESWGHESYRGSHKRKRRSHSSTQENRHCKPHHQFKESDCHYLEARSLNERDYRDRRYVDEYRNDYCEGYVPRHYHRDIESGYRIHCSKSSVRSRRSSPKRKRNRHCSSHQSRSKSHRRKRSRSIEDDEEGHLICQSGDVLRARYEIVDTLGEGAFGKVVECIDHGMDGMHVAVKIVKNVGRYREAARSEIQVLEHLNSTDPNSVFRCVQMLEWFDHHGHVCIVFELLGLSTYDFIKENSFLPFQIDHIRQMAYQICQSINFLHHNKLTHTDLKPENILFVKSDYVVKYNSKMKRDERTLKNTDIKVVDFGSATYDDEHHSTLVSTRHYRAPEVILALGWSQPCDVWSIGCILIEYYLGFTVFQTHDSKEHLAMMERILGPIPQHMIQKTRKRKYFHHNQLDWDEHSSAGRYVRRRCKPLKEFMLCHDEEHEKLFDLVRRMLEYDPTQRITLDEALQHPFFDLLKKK
Description: as §1, §2

EGFR WT = EGFR WT (Homo sapiens (Human), UniProt P00533); experiment: HotSpot radiometric kinase assay (Reaction Biology), EGFR WT; conditions: 10 μM ATP
Procedure, shortened: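 IC50 values derive from curve fits of 33P incorporation measured by P81 filter binding. ATP was 10 μM final; incubation lasted 120 min at room temperature after ~20 min compound preincubation.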

EGFR (D770_N771insNPG) = EGFR (D770_N771insNPG) (Homo sapiens (Human), UniProt P00533, INS770NPG); experiment: HotSpot radiometric kinase assay, EGFR (D770_N771insNPG); conditions: 10 μM ATP, read-out: EGFR (Δ770_N771insNPG) IC50
EGFR (D770_N771insNPG), sequence (P00533 other isoform, or with tags, fused parts or gaps del 1-668/ins NPG behind 770 limits assumed): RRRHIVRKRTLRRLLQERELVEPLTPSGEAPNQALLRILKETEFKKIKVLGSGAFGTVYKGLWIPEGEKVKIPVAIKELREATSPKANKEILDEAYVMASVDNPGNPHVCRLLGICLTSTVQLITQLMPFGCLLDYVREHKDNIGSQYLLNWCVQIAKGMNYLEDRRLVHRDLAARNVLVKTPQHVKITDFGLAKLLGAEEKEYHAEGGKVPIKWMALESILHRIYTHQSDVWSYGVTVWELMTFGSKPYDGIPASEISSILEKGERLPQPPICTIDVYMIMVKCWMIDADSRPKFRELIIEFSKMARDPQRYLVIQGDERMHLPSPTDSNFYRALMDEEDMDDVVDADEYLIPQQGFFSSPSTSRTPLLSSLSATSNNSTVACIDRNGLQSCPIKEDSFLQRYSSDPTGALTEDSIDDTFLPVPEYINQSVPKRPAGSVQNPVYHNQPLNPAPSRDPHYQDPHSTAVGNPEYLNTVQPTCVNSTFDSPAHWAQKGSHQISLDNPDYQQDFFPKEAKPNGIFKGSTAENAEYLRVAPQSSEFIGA
Procedure, shortened: (§3)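 IC50 values come from curve fits of ^33P incorporation captured on P81 filters after acid washing. Kinase reactions ran 120 min at room temperature with 10 μM ATP, added about 20 min after compound. Buffer was Hepes pH 7.5 containing Mg, DTT and 1% DMSO.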

EGFR Δ746-750 mutant = EGFR Δ746-750 mutant (Homo sapiens (Human), UniProt P00533, DEL746-750); experiment: HotSpot radiometric kinase assay, EGFR Δ746-750 mutant; conditions: 10 μM ATP
EGFR Δ746-750 mutant, sequence (P00533 other isoform, or with tags, fused parts or gaps del 1-668/del 746-750 limits assumed): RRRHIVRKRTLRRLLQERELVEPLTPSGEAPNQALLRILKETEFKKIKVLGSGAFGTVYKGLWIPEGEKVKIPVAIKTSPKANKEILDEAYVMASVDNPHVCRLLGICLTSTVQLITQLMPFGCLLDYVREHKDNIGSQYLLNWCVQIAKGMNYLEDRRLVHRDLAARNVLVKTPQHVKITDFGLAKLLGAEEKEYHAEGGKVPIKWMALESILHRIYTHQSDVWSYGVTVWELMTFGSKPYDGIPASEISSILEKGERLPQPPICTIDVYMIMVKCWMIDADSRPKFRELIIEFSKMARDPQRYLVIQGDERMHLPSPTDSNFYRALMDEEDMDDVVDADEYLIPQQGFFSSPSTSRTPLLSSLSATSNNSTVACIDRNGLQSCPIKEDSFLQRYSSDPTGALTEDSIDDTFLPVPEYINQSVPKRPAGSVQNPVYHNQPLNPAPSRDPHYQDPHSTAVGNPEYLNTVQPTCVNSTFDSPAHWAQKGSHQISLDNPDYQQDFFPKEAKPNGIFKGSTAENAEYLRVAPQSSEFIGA
Procedure, shortened: as §3

[1] = target: EGFR Δ746-750/C797S mutant (Homo sapiens (Human), UniProt P00533, C797S/DEL746-750); experiment: HotSpot radiometric kinase assay, EGFR Δ746-750/C797S mutant; conditions: 10 μM ATP
EGFR Δ746-750/C797S mutant, sequence (P00533 other isoform, or with tags, fused parts or gaps C797S/del 1-668/del 746-750 limits assumed): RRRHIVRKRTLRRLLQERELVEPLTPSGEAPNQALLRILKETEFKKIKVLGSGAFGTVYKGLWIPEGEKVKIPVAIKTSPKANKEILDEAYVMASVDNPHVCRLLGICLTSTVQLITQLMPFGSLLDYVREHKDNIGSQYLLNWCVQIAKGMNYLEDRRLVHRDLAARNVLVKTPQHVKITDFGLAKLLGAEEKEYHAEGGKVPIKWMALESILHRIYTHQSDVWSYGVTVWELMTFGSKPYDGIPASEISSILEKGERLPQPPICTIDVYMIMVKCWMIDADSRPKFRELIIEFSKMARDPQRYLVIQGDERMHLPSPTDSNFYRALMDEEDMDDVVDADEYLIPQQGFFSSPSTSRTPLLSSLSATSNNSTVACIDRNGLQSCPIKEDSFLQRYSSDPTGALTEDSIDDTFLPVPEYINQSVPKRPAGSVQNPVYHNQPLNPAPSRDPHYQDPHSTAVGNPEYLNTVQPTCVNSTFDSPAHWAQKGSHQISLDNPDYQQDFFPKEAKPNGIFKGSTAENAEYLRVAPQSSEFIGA
Procedure, shortened: as §3

EGFR L858R mutant = EGFR L858R mutant (Homo sapiens (Human), UniProt P00533, L858R); experiment: HotSpot radiometric kinase assay, EGFR L858R mutant; conditions: 10 μM ATP
EGFR L858R mutant, sequence (P00533 25-1210 L858R): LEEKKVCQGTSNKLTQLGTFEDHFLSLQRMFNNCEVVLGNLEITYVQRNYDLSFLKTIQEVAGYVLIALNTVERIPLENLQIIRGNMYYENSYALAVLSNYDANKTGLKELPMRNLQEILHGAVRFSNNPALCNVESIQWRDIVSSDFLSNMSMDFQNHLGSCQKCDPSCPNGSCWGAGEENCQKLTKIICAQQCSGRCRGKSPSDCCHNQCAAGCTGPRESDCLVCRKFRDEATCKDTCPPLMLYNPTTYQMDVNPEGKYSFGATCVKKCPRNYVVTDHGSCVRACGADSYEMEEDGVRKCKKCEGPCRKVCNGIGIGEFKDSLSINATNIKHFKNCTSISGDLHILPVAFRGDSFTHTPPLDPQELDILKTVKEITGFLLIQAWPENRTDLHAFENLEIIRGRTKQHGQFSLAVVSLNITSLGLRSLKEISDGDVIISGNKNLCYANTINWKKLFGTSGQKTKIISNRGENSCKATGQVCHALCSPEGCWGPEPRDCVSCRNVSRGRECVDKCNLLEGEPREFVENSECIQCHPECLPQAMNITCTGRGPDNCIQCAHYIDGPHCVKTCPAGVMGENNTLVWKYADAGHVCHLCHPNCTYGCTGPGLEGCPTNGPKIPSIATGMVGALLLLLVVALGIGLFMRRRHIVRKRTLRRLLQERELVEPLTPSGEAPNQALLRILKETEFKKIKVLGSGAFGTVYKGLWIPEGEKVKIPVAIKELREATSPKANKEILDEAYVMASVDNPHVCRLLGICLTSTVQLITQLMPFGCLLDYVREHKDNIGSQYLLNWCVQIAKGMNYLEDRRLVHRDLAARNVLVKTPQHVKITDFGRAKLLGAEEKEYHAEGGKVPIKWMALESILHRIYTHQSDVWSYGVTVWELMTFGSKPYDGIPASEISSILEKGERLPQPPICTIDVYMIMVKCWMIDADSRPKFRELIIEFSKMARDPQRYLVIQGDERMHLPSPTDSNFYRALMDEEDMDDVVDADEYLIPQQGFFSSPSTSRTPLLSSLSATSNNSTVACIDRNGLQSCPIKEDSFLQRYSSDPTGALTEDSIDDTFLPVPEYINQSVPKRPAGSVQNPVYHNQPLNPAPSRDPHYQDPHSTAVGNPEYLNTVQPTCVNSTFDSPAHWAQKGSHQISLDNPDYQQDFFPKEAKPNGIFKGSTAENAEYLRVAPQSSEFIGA
Procedure, shortened: as §3

EGFR L858R/T790M mutant = EGFR L858R/T790M mutant (Homo sapiens (Human), UniProt P00533, L858R/T790M); experiment: HotSpot radiometric kinase assay, EGFR L858R/T790M mutant; conditions: 10 μM ATP
EGFR L858R/T790M mutant, sequence (P00533 25-1210 T790M/L858R): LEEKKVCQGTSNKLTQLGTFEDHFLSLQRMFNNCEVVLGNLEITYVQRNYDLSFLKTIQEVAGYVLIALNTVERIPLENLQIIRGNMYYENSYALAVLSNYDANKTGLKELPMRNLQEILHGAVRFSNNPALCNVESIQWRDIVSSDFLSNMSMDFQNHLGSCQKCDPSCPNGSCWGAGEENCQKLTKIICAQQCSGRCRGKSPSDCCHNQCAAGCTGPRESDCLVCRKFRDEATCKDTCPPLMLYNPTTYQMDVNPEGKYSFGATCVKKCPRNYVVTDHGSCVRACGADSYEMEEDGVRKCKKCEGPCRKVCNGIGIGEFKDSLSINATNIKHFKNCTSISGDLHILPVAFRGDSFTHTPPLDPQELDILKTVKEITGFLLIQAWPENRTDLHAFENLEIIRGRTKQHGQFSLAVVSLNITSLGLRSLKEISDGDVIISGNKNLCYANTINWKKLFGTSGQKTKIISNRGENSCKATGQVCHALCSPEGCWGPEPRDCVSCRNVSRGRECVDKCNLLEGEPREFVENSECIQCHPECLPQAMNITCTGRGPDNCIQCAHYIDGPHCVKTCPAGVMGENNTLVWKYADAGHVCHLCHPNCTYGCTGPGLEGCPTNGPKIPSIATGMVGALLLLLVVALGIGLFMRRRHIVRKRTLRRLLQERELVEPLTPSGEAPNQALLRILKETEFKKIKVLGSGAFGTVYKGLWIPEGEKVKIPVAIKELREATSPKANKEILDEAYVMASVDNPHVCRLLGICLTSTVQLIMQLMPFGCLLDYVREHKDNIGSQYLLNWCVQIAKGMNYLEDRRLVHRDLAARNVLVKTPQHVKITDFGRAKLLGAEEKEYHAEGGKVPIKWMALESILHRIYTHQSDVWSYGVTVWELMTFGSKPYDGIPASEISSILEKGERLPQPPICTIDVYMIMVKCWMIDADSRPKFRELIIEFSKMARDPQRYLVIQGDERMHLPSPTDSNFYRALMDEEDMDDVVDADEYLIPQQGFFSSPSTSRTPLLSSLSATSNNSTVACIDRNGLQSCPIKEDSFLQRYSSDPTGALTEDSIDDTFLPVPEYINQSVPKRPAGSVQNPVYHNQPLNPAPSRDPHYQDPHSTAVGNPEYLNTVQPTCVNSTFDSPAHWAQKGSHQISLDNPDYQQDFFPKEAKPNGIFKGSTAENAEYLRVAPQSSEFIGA
Procedure, shortened: as §3

[2] = target: EGFR L858R/T790M/C797S mutant (Homo sapiens (Human), UniProt P00533, C797S/L858R/T790M); experiment: HotSpot radiometric kinase assay, EGFR L858R/T790M/C797S mutant; conditions: 10 μM ATP
Procedure, shortened: as §3

CLK1, sequence (P49759 whole entry): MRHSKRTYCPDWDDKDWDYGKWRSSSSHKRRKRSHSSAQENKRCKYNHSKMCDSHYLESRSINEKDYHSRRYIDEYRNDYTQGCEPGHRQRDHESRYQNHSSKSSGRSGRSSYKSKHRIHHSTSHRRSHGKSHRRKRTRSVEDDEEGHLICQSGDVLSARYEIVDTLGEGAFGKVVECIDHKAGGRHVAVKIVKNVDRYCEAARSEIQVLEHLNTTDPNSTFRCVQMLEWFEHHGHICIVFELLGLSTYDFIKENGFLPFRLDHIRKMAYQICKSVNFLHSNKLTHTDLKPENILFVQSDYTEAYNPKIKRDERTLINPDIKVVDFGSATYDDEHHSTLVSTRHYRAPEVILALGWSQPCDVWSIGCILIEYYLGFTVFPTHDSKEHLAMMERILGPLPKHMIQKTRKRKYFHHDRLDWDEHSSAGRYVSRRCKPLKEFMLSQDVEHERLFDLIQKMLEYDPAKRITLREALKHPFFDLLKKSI

| IC50 (CLK1) [nM] | IC50 (CLK2) [nM] | IC50 (CLK3) [nM] | IC50 (CLK4) [nM] | IC50 (EGFR WT) [nM] | IC50 (EGFR (D770_N771insNPG)) [nM] | IC50 (EGFR Δ746-750 mutant) [nM] | IC50 [1] [nM] | IC50 (EGFR L858R mutant) [nM] | IC50 (EGFR L858R/T790M mutant) [nM] | IC50 [2] [nM] | Structure (SMILES) |
| --- | --- | --- | --- | --- | --- | --- | --- | --- | --- | --- | --- |
| 1.27 | 3.25 | 1000 | 1.37 | – | – | – | – | – | – | – | CCOc1c2c(nn1C)CN(C(C)=O)CCOc1c(cnn1C)-c1ccc3[nH]nc(c3c1)/C=C/2 [Example 294, 1-[(17E)-16-ethoxy-8,15-dimethyl-2,8,10,11,13,15-hexahydro-12H-3,5-ethenotripyrazolo[3,4-f:3′,4′-j:4″,3″- n][1,4]oxazacyclopentadecin-12-yl]ethan-1-one] |
| 0.11 | 0.03 | 41.9 | 0.13 | – | – | – | – | – | – | – | Cc1noc2c1/C=C/c1n[nH]c3ccc(cc13)-c1cnn(C)c1O[C@@H](C)CN(C)C2 [Example 141, (10S,17E)-8,10,12,16-tetramethyl-2,8,10,11,12,13-hexahydro-3,5-etheno[1,2]oxazolo[5,4-f]dipyrazolo[3,4-j:4′,3′-n][1,4]oxazacyclopentadecine] |
| – | – | – | – | > 1000 | > 1000 | 850 | 798 | 1580 | 153 | 218 | COCc1nn(C)c2c1/C=C/c1n[nH]c3ccc(cc13)-c1cnn(C)c1OCCCO2 [Ex. 11, (17E)-16-(methoxymethyl)-8,14-dimethyl-2,11,12,14-tetrahydro-8H,10H-3,5-etheno[1,5]dioxacyclopentadecino[10,11-c:15,14-c′:6,7-c″]tripyrazole] |
| – | – | – | – | 17.7 | 6.79 | 1.65 | 4.09 | 4.02 | 0.57 | 1.9 | CN1CCN(c2ccc3c(c2)OC2CCN(CCOc4c(cnn4C)-c4ccc5[nH]nc(c5c4)/C=C/3)C2=O)CC1 (stereo in doubt) [Example 131] |
| – | – | – | – | > 1000 | 910 | 212 | 775 | 688 | 206 | 296 | Cc1nn([C@H]2CC[C@@H]2O)c2c1/C=C/c1n[nH]c3ccc(cc13)-c1cnn(C)c1OCCCO2 (racemic) [Example 78, (rac)-2-[(17E)-8,16-dimethyl-2,8,11,12-tetrahydro-10H,14H-3,5-etheno[1,5]dioxacyclopentadecino[10,11-c:15,14-c′:6,7-c″ ]tripyrazol-14-yl]cyclobutan-1-ol] |
| – | – | – | – | 17.1 | 81.8 | 11.6 | 4.65 | 1.02 | 0.06 | 0.81 | Cc1c2c(nn1CCN1CCN(C)CC1)CN(C)C[C@H](C)Oc1c(cnn1C)-c1ccc3[nH]nc(c3c1)/C=C/2 [Example 90, (10S,17E)-8,10,12,16-tetramethyl-15-[2-(4-methylpiperazin-1-yl)ethyl]-2,10,11,12,13,15-hexahydro-8H-3,5-ethenotripyrazolo[3,4-f:3′,4′-j:4″,3″-n][1,4]oxazacyclopentadecine] |

The next lines start with the compound.

| Structure (SMILES) | IC50 (CLK1) [nM] | IC50 (CLK2) [nM] | IC50 (CLK3) [nM] | IC50 (CLK4) [nM] | IC50 (EGFR WT) [nM] | IC50 (EGFR (D770_N771insNPG)) [nM] | IC50 (EGFR Δ746-750 mutant) [nM] | IC50 [1] [nM] | IC50 (EGFR L858R mutant) [nM] | IC50 (EGFR L858R/T790M mutant) [nM] | IC50 [2] [nM] |
| --- | --- | --- | --- | --- | --- | --- | --- | --- | --- | --- | --- |
| CC(C)Oc1nn(CCO)c2c1/C=C/c1n[nH]c3ccc(cc13)-c1cnn(C)c1O[C@@H](C)CN(C)[C@H]2C [Example 224, 2-{(10S,13S,17E)-8,10,12,13-tetramethyl-16-[(propan-2-yl)oxy]-2,8,10,11,12,13-hexahydro-14H-3,5-ethenotripyrazolo[3,4-f:3′,4′-j:4″,3″-n][1,4]oxazacyclopentadecin-14-yl}ethan-1-ol] | 0.69 | 1.16 | 253 | 1.46 | – | – | – | – | – | – | – |
| C#Cc1nn(C)c2c1-c1ccc3[nH]nc(c3c1)/C=C/c1c(OCC)nn(CCO)c1CN(C)C[C@H](C)O2 [Example 292, 2-[(10S,17E)-16-ethoxy-6-ethynyl-8,10,12-trimethyl-2,8,10,11,12,13-hexahydro-14H-3,5-ethenotripyrazolo[3,4-f:3′,4′-j:4″,3″-n][1,4]oxazacyclopentadecin-14-yl]ethan-1-ol] | 1.01 | 4.87 | 1000 | 1.36 | – | – | – | – | – | – | – |
| Cc1nn(C)c2c1/C=C/c1n[nH]c3ccc(cc13)-c1cnn(C)c1COCCO2 [Ex. 6, (17E)-8,14,16-trimethyl-2,8,9,11,12,14-hexahydro-3,5-etheno[1,4]dioxacyclopentadecino[11,10-c:15,14-c′:6,7-c″ ]tripyrazole] | 0.34 | 0.23 | 178 | 0.52 | – | – | – | – | – | – | – |
| C[C@H]1CN(C)Cc2c(c(C#N)nn2CCO)/C=C/c2n[nH]c3ccc(cc23)-c2cnn(C)c2O1 [Example 208, (10S,17E)-14-(2-hydroxyethyl)-8,10,12-trimethyl-2,10,11,12,13,14-hexahydro-8H-3,5-ethenotripyrazolo[3,4-f:3′,4′-j:4″,3″-n][1,4]oxazacyclopentadecine-16-carbonitrile] | 0.59 | 0.13 | 220 | 1.53 | – | – | – | – | – | – | – |
| CCNc1nn(CCO)c2c1/C=C/c1n[nH]c3ccc(cc13)-c1cnn(C)c1O[C@@H](C)CN(C)C2 [Example 295, 2-[(10S,17E)-16-(ethylamino)-8,10,12-trimethyl-2,8,10,11,12,13-hexahydro-14H-3,5-ethenotripyrazolo[3,4-f:3′,4′-j:4″,3″-n][1,4]oxazacyclopentadecin-14-yl]ethan-1-ol] | 0.64 | 0.78 | 13.8 | 1.12 | – | – | – | – | – | – | – |
| Cc1snc2c1/C=C/c1n[nH]c3ccc(cc13)-c1cnn(C)c1O[C@@H](C)CN(C)C2 [Example 158, (10S,17E)-8,10,12,16-tetramethyl-2,8,10,11,12,13-hexahydro-3,5-ethenodipyrazolo[3,4-j:4′,3′-n][1,2]thiazolo[3,4-f][1,4]oxazacyclopentadecine] | 0.14 | 0.4 | 664 | 0.31 | – | – | – | – | – | – | – |
| Cc1nn(C)c2c1/C=C/c1n[nH]c3ccc(cc13)-c1cnn(C)c1O[C@@H](C)CN(C)[C@H]2C (single isomer, unassigned) [Example 145] | 0.21 | 0.04 | 99.6 | 0.52 | – | – | – | – | – | – | – |
| CCN1Cc2c(c(OC(C)C)nn2C[C@H](C)O)/C=C/c2n[nH]c3cc(F)c(cc23)-c2cnn(C)c2O[C@@H](C)C1 [Example 296, (2S)-1-{(10S,17E)-12-ethyl-19-fluoro-8,10-dimethyl-16-[(propan-2-yl)oxy]-2,8,10,11,12,13-hexahydro-14H-3,5-ethenotripyrazolo[3,4-f:3′,4′-j:4″,3″-n][1,4]oxazacyclopentadecin-14-yl}propan-2-ol] | 1.2 | 1.15 | 33.4 | 1.57 | – | – | – | – | – | – | – |
| CCOc1nn(CCO)c2c1/C=C/c1n[nH]c3ccc(cc13)-c1c(C#N)nn(C)c1O[C@@H](C)CN(CC)C2 [Example 290, (10S,17E)-16-ethoxy-12-ethyl-14-(2-hydroxyethyl)-8,10-dimethyl-2,10,11,12,13,14-hexahydro-8H-3,5-ethenotripyrazolo[3,4-f:3′,4′-j:4″,3″-n][1,4]oxazacyclopentadecine-6-carbonitrile] | 69.4 | 102 | 1000 | 38.1 | – | – | – | – | – | – | – |
| C[C@H]1CN(C)Cc2c(c(OC3CN(S(C)(=O)=O)C3)nn2CCO)/C=C/c2n[nH]c3ccc(cc23)-c2cnn(C)c2O1 [Example 221, 2-[(10S,17E)-16-{[1-(methanesulfonyl)azetidin-3-yl]oxy}-8,10,12-trimethyl-2,8,10,11,12,13-hexahydro-14H-3,5-ethenotripyrazolo[3,4-f:3′,4′-j:4″,3″-n][1,4]oxazacyclopentadecin-14-yl]ethan-1-ol] | – | – | – | – | 4.14 | 10.3 | 0.55 | 0.35 | 0.97 | 0.21 | 0.14 |
